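Interpolation was linear, between the two tested concentrations surrounding the appropriate level; five concentrations were tested over 48 hours in 96-well plates. Here, GI50 denotes the concentration required for 50% inhibition of growth.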 Activity calls are given as the source filed them. Rule as the data show it: active = GI50 up to about 1.1 µM and inactive = higher.
How the values were obtained:
Assay in all cases: DTP human tumour cell line panel, 48 h
SN12C = tested on: SN12C
MOLT-4 = tested on: MOLT-4
HL-60 = tested on: HL-60
HT-29 = tested on: HT-29
HCC 2998 = tested on: HCC 2998
UO-31 = tested on: UO-31
CAKI-1 = tested on: CAKI-1
OVCAR-8 = tested on: OVCAR-8
UACC-62 = tested on: UACC-62
SNB-75 = tested on: SNB-75
TK-10 = tested on: TK-10
HCT-15 = tested on: HCT-15
Hs-578T = tested on: Hs-578T
DU-145 = tested on: DU-145
SK-MEL-2 = tested on: SK-MEL-2
NCI-H460 = tested on: NCI-H460
EKVX = tested on: EKVX
LOX IMVI = tested on: LOX IMVI
NCI-H522 = tested on: NCI-H522
NCI-H226 = tested on: NCI-H226
SK-MEL-5 = tested on: SK-MEL-5
786-0 = tested on: 786-0
OVCAR-5 = tested on: OVCAR-5
U-251 = tested on: U-251
SF-268 = tested on: SF-268
K562 = tested on: K562
HCT-116 = tested on: HCT-116
SK-MEL-28 = tested on: SK-MEL-28
NCI/ADR-RES = tested on: NCI/ADR-RES
COLO 205 = tested on: COLO 205
RPMI-8226 = tested on: RPMI-8226
NCI-H23 = tested on: NCI-H23
KM12 = tested on: KM12
Malme-3M = tested on: Malme-3M
ACHN = tested on: ACHN
HOP-62 = tested on: HOP-62
RXF 393 = tested on: RXF 393
SR = tested on: SR
MDA-MB-435 = tested on: MDA-MB-435
SW-620 = tested on: SW-620
MCF7 = tested on: MCF7
UACC-257 = tested on: UACC-257
IGROV-1 = tested on: IGROV-1
OVCAR-4 = tested on: OVCAR-4
SNB-19 = tested on: SNB-19
OVCAR-3 = tested on: OVCAR-3
A498 = tested on: A498
PC-3 = tested on: PC-3
BT-549 = tested on: BT-549
T47D = tested on: T47D
MDA-MB-231 = tested on: MDA-MB-231
SF-295 = tested on: SF-295
SF-539 = tested on: SF-539
CCRF-CEM = tested on: CCRF-CEM
A549 = tested on: A549
SK-OV-3 = tested on: SK-OV-3
M14 = tested on: M14

Measured: GI50

COc1ccc(-n2c(C)nc3ccc(NC(=S)Nc4ccccc4)cc3c2=O)cc1
76.2 µM: HCT-15
inactive: SN12C > 100 µM | MOLT-4 32.1 µM | HL-60 53.3 µM | HT-29 62.4 µM | HCC 2998 26.2 µM | UO-31 > 100 µM | CAKI-1 > 100 µM | OVCAR-8 > 100 µM | UACC-62 61.4 µM | SNB-75 > 100 µM | TK-10 > 100 µM | Hs-578T > 100 µM | DU-145 > 100 µM | SK-MEL-2 56.1 µM | NCI-H460 12.4 µM | EKVX 65.2 µM | LOX IMVI 43.7 µM | NCI-H522 56.8 µM | NCI-H226 43.2 µM | SK-MEL-5 37.4 µM | 786-0 > 100 µM | OVCAR-5 > 100 µM | U-251 > 100 µM | SF-268 > 100 µM | K562 51.6 µM | HCT-116 39.2 µM | SK-MEL-28 96.2 µM | NCI/ADR-RES > 100 µM | COLO 205 64.1 µM | RPMI-8226 28.6 µM | NCI-H23 52.7 µM | KM12 72.3 µM | Malme-3M > 100 µM | ACHN 65.9 µM | HOP-62 > 100 µM | RXF 393 57.1 µM | SR 60.7 µM | MDA-MB-435 61.5 µM | SW-620 > 100 µM | MCF7 43.2 µM | UACC-257 51.8 µM | IGROV-1 > 100 µM | OVCAR-4 86.1 µM | SNB-19 > 100 µM | OVCAR-3 34.8 µM | A498 > 100 µM | PC-3 35.7 µM | BT-549 70 µM | T47D 44.6 µM | MDA-MB-231 > 100 µM | SF-295 > 100 µM

Cc1ccc(C(=O)Nc2ccc(S(=O)(=O)O)c3cc(S(=O)(=O)O)cc(S(=O)(=O)O)c23)cc1NC(=O)c1cccc(N)c1
> 100 µM: HCT-15
active: Malme-3M 1.05 µM
inactive: SN12C > 100 µM | SF-539 > 100 µM | MOLT-4 > 100 µM | HL-60 > 100 µM | HT-29 > 100 µM | HCC 2998 > 100 µM | UO-31 > 100 µM | CAKI-1 > 100 µM | OVCAR-8 > 100 µM | UACC-62 > 100 µM | SNB-75 > 100 µM | TK-10 > 100 µM | CCRF-CEM > 100 µM | Hs-578T > 100 µM | SK-MEL-2 73.8 µM | NCI-H460 > 100 µM | EKVX > 100 µM | A549 > 100 µM | NCI-H522 > 100 µM | NCI-H226 > 100 µM | SK-MEL-5 > 100 µM | 786-0 > 100 µM | OVCAR-5 > 100 µM | U-251 > 100 µM | SF-268 > 100 µM | K562 > 100 µM | SK-MEL-28 > 100 µM | NCI/ADR-RES > 100 µM | COLO 205 > 100 µM | NCI-H23 > 100 µM | KM12 > 100 µM | ACHN > 100 µM | HOP-62 > 100 µM | RXF 393 > 100 µM | SR > 100 µM | SW-620 > 100 µM | MCF7 > 100 µM | UACC-257 > 100 µM | IGROV-1 > 100 µM | OVCAR-4 > 100 µM | SNB-19 > 100 µM | OVCAR-3 > 100 µM | A498 > 100 µM | SK-OV-3 > 100 µM | PC-3 > 100 µM | BT-549 > 100 µM | T47D > 100 µM | MDA-MB-231 > 100 µM | M14 > 100 µM | SF-295 > 100 µM

— ChEMBL document CHEMBL1201862, “PubChem BioAssay data set” (2004)
